Measurements from ChEMBL document CHEMBL1129730, “Mechanistic studies on the inactivation of papain by epoxysuccinyl inhibitors” (J Med Chem, 1996).
Several values for one entry are separate records, joined by “and”; a condition that tells them apart may be missing. Equal entries are not always repeated.

What was measured:
Papain (Carica papaya) [1] = molecular target: T1, Papain (Carica papaya) (UniProt P00784); assay: Kinetic constant First order rate of inactivation (K3) for the inhibition of papain conducted in 0.1 M phosphate, pH 6.8, at 30 degree C
T1 sequence (whole entry): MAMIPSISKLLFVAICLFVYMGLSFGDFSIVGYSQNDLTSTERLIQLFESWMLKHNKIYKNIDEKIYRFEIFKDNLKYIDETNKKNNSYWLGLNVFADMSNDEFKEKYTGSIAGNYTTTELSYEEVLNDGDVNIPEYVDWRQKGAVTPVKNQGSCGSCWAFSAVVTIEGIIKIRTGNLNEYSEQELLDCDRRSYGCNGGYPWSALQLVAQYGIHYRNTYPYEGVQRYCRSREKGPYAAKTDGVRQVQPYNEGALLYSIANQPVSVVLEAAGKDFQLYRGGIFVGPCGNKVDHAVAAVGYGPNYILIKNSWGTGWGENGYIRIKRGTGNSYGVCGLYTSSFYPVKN

Papain = molecular target: T2, Papain (Carica papaya, UniProt P00784); assay: Kinetic constant Apparent binding constant (Ki`) for the inhibition of papain conducted in 0.1 M phosphate, pH 6.8, at 30 degree C
T2 sequence (P00784 whole entry): T1 sequence (whole entry)

Papain (Carica papaya) [2] = molecular target: T1, Papain (Carica papaya); assay: Inhibition of papain depend on Acid dissociation constant of the protein Papain

| k3 (Papain (Carica papaya) [1]) [s⁻¹] | Ki (Papain) [µM] | pKa (Papain (Carica papaya) [2]) | SMILES |
| --- | --- | --- | --- |
| 0.71 | 2.4 | 3.93 and 4.09 | CC(C)CCNC(=O)[C@H](CC(C)C)NC(=O)[C@H]1O[C@@H]1C(=O)O [E-64C] |
| 0.47 | 170 | – | CC(=O)[C@H]1O[C@@H]1C(=O)N[C@@H](CC(C)C)C(=O)NCCC(C)C |
| 0.67 | 6.6 | – | CC(C)CCNC(=O)[C@H](CC(C)C)NC(=O)[C@H]1O[C@@H]1C(=O)NO |
| 0.059 | 52 | – | CCOC(=O)[C@H]1O[C@@H]1C(=O)N[C@@H](CC(C)C)C(=O)NCCC(C)C [ALOXISTATIN] |
| 0.019 | 4400 | – | CC(C)CCNC(=O)[C@H](CC(C)C)NC(=O)[C@H]1O[C@@H]1CO |
| 0.35 | 51 | – | CC(C)CCNC(=O)[C@H](CC(C)C)NC(=O)[C@H]1O[C@@H]1C(N)=O |
